Data on four compounds can be found in ChEMBL document CHEMBL1152535, “Synthesis of branched 9-[2-(2-phosphonoethoxy)ethyl]purines as a new class of acyclic nucleoside phosphonates which inhibit Plasmodium falciparum hypoxanthine-guanine-xanthine phosphoribosyltransferase” (Bioorg Med Chem, 2009).

The structures appear in SMILES notation.

Assay [1] in a line: Selectivity ratio of Ki for human recombinant HGPRT to Ki for Plasmodium falciparum recombinant HGXPRT.
Assay [2] is described as follows: Inhibition of Plasmodium falciparum recombinant HGXPRT expressed in Escherichia coli by spectrophotometric assay.
Assay [3] concerns the target T1, Hypoxanthine-guanine phosphoribosyltransferase (Homo sapiens, UniProt P00492).
T1 sequence (P00492 whole entry): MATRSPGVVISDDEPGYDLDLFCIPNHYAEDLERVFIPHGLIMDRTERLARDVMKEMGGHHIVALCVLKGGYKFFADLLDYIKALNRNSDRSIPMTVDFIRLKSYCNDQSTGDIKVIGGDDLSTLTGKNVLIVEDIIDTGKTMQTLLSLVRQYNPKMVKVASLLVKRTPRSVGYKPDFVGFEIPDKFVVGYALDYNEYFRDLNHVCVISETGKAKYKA
The assay is described as follows: Inhibition of human recombinant HGPRT expressed in Escherichia coli by spectrophotometric assay.

One may read the Ki as a dissociation constant, usually derived from enzyme kinetics or from competition with a known ligand. In the case of `CC(CP(=O)(O)O)OCCn1cnc2c(=O)[nH]cnc21` (configuration not stated), the Ratio Ki in assay [1] turned out to be 0.2. Besides, the values for the Ki in assay [2] and in assay [3] were 10 µM and 2 µM, respectively.
Consider `CCC(CP(=O)(O)O)OCCn1cnc2c(=O)[nH]c(N)nc21` (configuration not stated), for which the Ratio Ki in assay [1] worked out at 0.06. Besides, the Ki was 5 µM in assay [2] and 0.3 µM in assay [3].
For `CCC(CP(=O)(O)O)OCCn1cnc2c(=O)[nH]cnc21` (configuration not stated) the same measures were 0.15, 69 µM and 10 µM.
For `CC(CP(=O)(O)O)OCCn1cnc2c(=O)[nH]c(N)nc21` (configuration not stated) the same measures were 0.1, 1 µM and 0.1 µM.
